The test system of data set [1] is Cryptococcus neoformans. The data set can be described thus: Antifungal activity against Cryptococcus neoformans NCIM 3378 after 48 hrs by microbroth dilution method. It counts as functional.
The test system of data set [2] is Cryptococcus neoformans. In words: Antifungal activity against Cryptococcus neoformans NCIM 3542 after 48 hrs by microbroth dilution method. It counts as functional.
In a further data set the test system is Debaryomyces hansenii. In words: Antifungal activity against Debaryomyces hansenii after 48 hrs by microbroth dilution method. Type of data set: functional.
Data set [3] concerns Candida albicans. The data set can be described thus: Antifungal activity against Candida albicans NCIM 3557 after 48 hrs by microbroth dilution method. It counts as functional. A general note: Broth dilution looks for growth in wells or tubes with falling amounts of substance.
The subject of data set [4] is Candida albicans. In words: Antifungal activity against Candida albicans after 48 hrs by microbroth dilution method. It counts as functional.
Data set [5] in a line: Toxicity in RBC assessed as induction of hemolysis. The note with it: red blood cells (RBC). It counts as cell-based, Erythrocyte.
A further data set relates to Dysdercus koenigii. In words: Insecticidal activity against 5th instar nymph of Dysdercus koenigii assessed as mortality per nymph. Type of data set: functional.
The next data set has as its system Nakaseomyces glabratus. The data set can be described thus: Antifungal activity against Candida glabrata NCIM 3237 after 48 hrs by microbroth dilution method. Type of data set: functional.
The nature of data set [6]: Antifungal activity against Pichia membranifaciens after 48 hrs by microbroth dilution method. It counts as functional.
The subject of data set [7] is Cryptococcus neoformans. In words: Antifungal activity against Cryptococcus neoformans after 48 hrs by microbroth dilution method. Type of data set: functional.
For a further data set, the system named is Drechslera. The data set can be described thus: Antifungal activity against Dreschlera oryzae after 48 hrs by microbroth dilution method. It counts as functional.
Data set [8] deals with Cryptococcus neoformans. In words: Antifungal activity against Cryptococcus neoformans NCIM 3541 after 48 hrs by microbroth dilution method. Type of data set: functional.
A further data set relates to Pyricularia grisea. The data set can be described thus: Antifungal activity against Magnaporthe grisea after 48 hrs by microbroth dilution method. It counts as functional.
Data set [9] in a line: Toxicity in RBC assessed as induction of hemolysis at MIC. It counts as cell-based, Erythrocyte. The following applies: red blood cells (RBC); read-out: Activity.
For another data set, the system named is Fusarium oxysporum. The data set can be described thus: Antifungal activity against Fusarium oxysporum after 48 hrs by microbroth dilution method. It counts as functional.
The subject of data set [10] is Candida albicans. The data set can be described thus: Antifungal activity against Candida albicans NCIM 3471 after 48 hrs by microbroth dilution method. Type of data set: functional.

Converted amounts (≈) assume the structure as drawn.

For orientation: MIC means the least concentration at which growth counts as inhibited. Read a low MIC as greater potency. As a reminder, the HC50 is the concentration giving 50% haemolysis.

In the case of `Cc1cc(NC(=O)NC(=O)c2ccc(Cl)cc2)c(C(C)C)cc1O`, the GI with Cryptococcus neoformans [1] is 32 µg/mL; in the data set on Cryptococcus neoformans [2] it was 32 µg/mL; in the data set on Candida albicans [3], 64 µg/mL; with Candida albicans [4] it was 32 µg/mL; in the data set with Nakaseomyces glabratus, 32 µg/mL; in the data set on Cryptococcus neoformans [7], 64 µg/mL. Moreover, the results for the GI in the data set with Cryptococcus neoformans [8] and with Candida albicans [10] were 32 µg/mL and above 512 µg/mL, respectively. Also, the MIC against Debaryomyces hansenii came to 128 µg/mL (≈ 369 µM); in data set [6], 256 µg/mL (≈ 738 µM); in the data set with Drechslera it was 128 µg/mL (≈ 369 µM); against Pyricularia grisea, 512 µg/mL (≈ 1480 µM); in the data set on Fusarium oxysporum, 256 µg/mL (≈ 738 µM). The HC50 in [5] is above 1000 µg/mL. Moreover, in the data set on Dysdercus koenigii, the LD50 was 18 µg. Besides, in data set [9], the hemolysis was below 2%.
For the compound `Cc1ccc(C(C)C)cc1O` [CARVACROL], the GI with Cryptococcus neoformans [1], in the data set with Cryptococcus neoformans [2], in the data set on Candida albicans [3], in the data set on Candida albicans [4], in the data set on Nakaseomyces glabratus and in the data set on Cryptococcus neoformans [7] was 128 µg/mL each time. Besides, the GI was 128 µg/mL in the data set on Cryptococcus neoformans [8] and 256 µg/mL in the data set on Candida albicans [10]. In addition, the MIC was 128 µg/mL (≈ 852 µM) in the data set with Debaryomyces hansenii; 128 µg/mL (≈ 852 µM) in data set [6]; 64 µg/mL (≈ 426 µM) in the data set on Drechslera; 128 µg/mL (≈ 852 µM) against Pyricularia grisea; 64 µg/mL (≈ 426 µM) against Fusarium oxysporum. The HC50 in data set [5] came to 250 µg/mL. In the data set with Dysdercus koenigii, the LD50 is 33.3 µg.
In the case of `Cc1cc(NC(=O)NC(=O)c2ccccc2F)c(C(C)C)cc1O`, the GI with Cryptococcus neoformans [1] was 16 µg/mL; in the data set on Cryptococcus neoformans [2], 16 µg/mL; with Candida albicans [3] it was above 512 µg/mL; with Candida albicans [4] it was 16 µg/mL; in the data set on Nakaseomyces glabratus, 16 µg/mL; with Cryptococcus neoformans [7] it was above 512 µg/mL. In addition, the GI in the data set on Cryptococcus neoformans [8] is below 4 µg/mL; with Candida albicans [10], 32 µg/mL. The MIC (in the data set on Debaryomyces hansenii; in data set [6]; against Drechslera; against Pyricularia grisea; against Fusarium oxysporum) was above 512 µg/mL each time. Besides, the HC50 in data set [5] is above 1000 µg/mL. Moreover, the LD50 in the data set on Dysdercus koenigii amounted to 12.5 µg. Also, in [9], the hemolysis was below 2%.
Take `Cc1cc(NC(=S)NC(=O)c2ccccc2Cl)c(C(C)C)cc1O`: the GI in the data set on Cryptococcus neoformans [1] was above 512 µg/mL; in the data set with Cryptococcus neoformans [2], 64 µg/mL; with Candida albicans [3], 64 µg/mL; with Candida albicans [4] it was 64 µg/mL; with Nakaseomyces glabratus, 64 µg/mL; with Cryptococcus neoformans [7] it was 128 µg/mL. The GI with Cryptococcus neoformans [8] is 32 µg/mL; in the data set with Candida albicans [10] it was above 512 µg/mL. The MIC against Debaryomyces hansenii was above 512 µg/mL; in [6] it was 512 µg/mL (≈ 1410 µM); against Drechslera, above 512 µg/mL; with Pyricularia grisea it was above 512 µg/mL; in the data set on Fusarium oxysporum, above 512 µg/mL. Besides, the concentration for 50% haemolysis (HC50) in data set [5] was above 1000 µg/mL. The LD50 with Dysdercus koenigii came out at 13 µg. For the same compound, in data set [9], the hemolysis is below 2%.
Turning to `Cc1cc(NC(=O)NC(=O)c2ccc(F)cc2)c(C(C)C)cc1O`, the GI in the data set with Cryptococcus neoformans [1] is 16 µg/mL; in the data set with Cryptococcus neoformans [2], 16 µg/mL; in the data set on Candida albicans [3], above 512 µg/mL; in the data set on Candida albicans [4], 16 µg/mL; in the data set on Nakaseomyces glabratus, 16 µg/mL; in the data set on Cryptococcus neoformans [7], above 512 µg/mL. Moreover, the GI was below 4 µg/mL in the data set with Cryptococcus neoformans [8] and 32 µg/mL in the data set on Candida albicans [10]. Also, the minimum inhibitory concentration (MIC) (with Debaryomyces hansenii; in data set [6]; with Drechslera; against Pyricularia grisea; against Fusarium oxysporum) was above 512 µg/mL throughout. Besides, the HC50 in data set [5] was above 1000 µg/mL. In addition, the LD50 with Dysdercus koenigii was determined as 14.9 µg. The hemolysis in data set [9] was below 2%.
`Cc1cc(NC(=S)NC(=O)c2ccccc2)c(C(C)C)cc1O`: the GI was 128 µg/mL with Cryptococcus neoformans [1]; 32 µg/mL in the data set on Cryptococcus neoformans [2]; 128 µg/mL in the data set on Candida albicans [3]; 32 µg/mL in the data set with Candida albicans [4]; 32 µg/mL in the data set with Nakaseomyces glabratus; 64 µg/mL in the data set on Cryptococcus neoformans [7]. For the same compound, the GI in the data set on Cryptococcus neoformans [8] was 16 µg/mL; in the data set with Candida albicans [10], above 512 µg/mL. The MIC in the data set on Debaryomyces hansenii was above 512 µg/mL; in data set [6], 512 µg/mL (≈ 1560 µM); in the data set on Drechslera, above 512 µg/mL; with Pyricularia grisea, above 512 µg/mL; in the data set on Fusarium oxysporum it was above 512 µg/mL. Further, in [5], the HC50 was above 1000 µg/mL. Further, the LD50 in the data set on Dysdercus koenigii amounted to 23.6 µg. Besides, in data set [9], the hemolysis was below 2%.
Consider `Cc1cc(NC(=O)NC(=O)c2ccccc2Cl)c(C(C)C)cc1O`, for which the GI was 128 µg/mL in the data set with Cryptococcus neoformans [1]; 128 µg/mL in the data set with Cryptococcus neoformans [2]; 128 µg/mL with Candida albicans [3]; 256 µg/mL in the data set with Candida albicans [4]; above 512 µg/mL with Nakaseomyces glabratus; 256 µg/mL in the data set on Cryptococcus neoformans [7]. The GI with Cryptococcus neoformans [8] is 256 µg/mL; with Candida albicans [10], above 512 µg/mL. Further, the minimal inhibitory concentration (MIC) is 128 µg/mL (≈ 369 µM) against Debaryomyces hansenii; 256 µg/mL (≈ 738 µM) in [6]; 256 µg/mL (≈ 738 µM) against Drechslera; above 512 µg/mL in the data set on Pyricularia grisea; 512 µg/mL (≈ 1480 µM) in the data set on Fusarium oxysporum. Also, the HC50 in data set [5] was above 1000 µg/mL. Further, the LD50 in the data set on Dysdercus koenigii came to 16.4 µg. The hemolysis in data set [9] was below 2%.
Take `Cc1cc(NC(=S)NC(=O)c2ccccc2F)c(C(C)C)cc1O`: the GI in the data set with Cryptococcus neoformans [1] is 512 µg/mL; in the data set with Cryptococcus neoformans [2], 128 µg/mL; with Candida albicans [3] it was 128 µg/mL; in the data set with Candida albicans [4] it was 128 µg/mL; in the data set on Nakaseomyces glabratus it was 128 µg/mL; in the data set with Cryptococcus neoformans [7], 32 µg/mL. The GI in the data set with Cryptococcus neoformans [8] is 64 µg/mL; with Candida albicans [10] it was above 512 µg/mL. Moreover, the minimum inhibitory concentration (MIC) was 256 µg/mL (≈ 739 µM) in the data set on Debaryomyces hansenii; above 512 µg/mL in [6]; above 512 µg/mL with Drechslera; 256 µg/mL (≈ 739 µM) with Pyricularia grisea; 128 µg/mL (≈ 369 µM) against Fusarium oxysporum. Besides, in data set [5], the HC50 was above 1000 µg/mL. For the same compound, the LD50 in the data set with Dysdercus koenigii was found to be 12.6 µg. The hemolysis in data set [9] was below 2%.
For `O=C(NC(=O)c1c(F)cccc1F)Nc1cc(Cl)c(OC(F)(F)C(F)C(F)(F)F)cc1Cl` (stereo not drawn) [LUFENURON], the GI with Cryptococcus neoformans [1], with Cryptococcus neoformans [2], with Candida albicans [3], in the data set on Candida albicans [4], in the data set on Nakaseomyces glabratus and in the data set on Cryptococcus neoformans [7] was above 512 µg/mL in each case. The GI in the data set with Cryptococcus neoformans [8] and in the data set with Candida albicans [10] was above 512 µg/mL in each case. For the same compound, the MIC (against Debaryomyces hansenii; in data set [6]; against Drechslera; against Pyricularia grisea; with Fusarium oxysporum) was above 512 µg/mL throughout. The HC50 in data set [5] is above 1000 µg/mL. Moreover, the LD50 with Dysdercus koenigii was determined as 9 µg.
Turning to `C[C@@H]1[C@H](O)[C@@H](C)/C=C/C=C/C=C/C=C/C=C/C=C/C=C/[C@H](O[C@@H]2O[C@H](C)[C@@H](O)[C@H](N)[C@@H]2O)C[C@@H]2O[C@](O)(C[C@@H](O)C[C@@H](O)[C@H](O)CC[C@@H](O)C[C@@H](O)CC(=O)O[C@H]1C)C[C@H](O)[C@H]2C(=O)O` [AMPHOTERICIN B], in data set [5], the HC50 turned out to be 8 µg/mL.

Values taken from ChEMBL document CHEMBL2069221, “Hybrid molecules of carvacrol and benzoyl urea/thiourea with potential applications in agriculture and medicine” (Bioorg Med Chem Lett, 2012).
